Test results published in PMC10886839, “Electrochemical DNA Cleavage Sensing for EcoRV Activity and Inhibition with an ERGO Electrode” (Biosensors, 2024).

Biological target: T1, EcoRV (Escherichia coli, UniProt P04390)
T1 construct: gene ecoRVR; restriction endonuclease, dosed in U/mL; homodimer (known biology)
T1 sequence (P04390 2-245): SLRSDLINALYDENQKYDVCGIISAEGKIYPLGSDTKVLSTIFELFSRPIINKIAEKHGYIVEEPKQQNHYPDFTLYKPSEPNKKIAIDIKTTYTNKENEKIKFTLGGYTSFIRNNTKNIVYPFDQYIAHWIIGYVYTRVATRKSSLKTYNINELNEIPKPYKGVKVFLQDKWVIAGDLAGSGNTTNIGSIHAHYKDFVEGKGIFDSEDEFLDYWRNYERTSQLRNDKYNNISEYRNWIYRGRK
Assay: electrochemical DNA cleavage assay (DPV of methylene blue-labelled DNA on ERGO electrode)
Type: biochemical

IC50: 96 nM
Structure (SMILES): O=C(O)C1=CC(=C(c2ccc(O)c(C(=O)O)c2)c2ccc(O)c(C(=O)O)c2)C=CC1=O [ATA, aurintricarboxylic acid]
